These results are taken from PubChem BioAssay (NCI).

Each structure is given as a SMILES string.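 Assay format: 96-well plates, 48-hour exposure. TGI marks complete inhibition of growth.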 Where only a bound is given, the exact number is not on record here.

The first experiment relates to A498 renal. Kind of experiment: NCI tumour cell line growth inhibition, 48 h.
For the compound `CN1C(=O)c2ccccc2OC12C=Cc1ccc(O)cc1O2` (stereo unspecified), the TGI was 53.4 µM.
On the same count and under the same terms, under `CN(C)CC1CCC/C(=C\c2ccc(Cl)cc2)C1=O` (stereo unspecified) stands 31.1 µM.

For a further experiment, the system named is HOP-62 NSCLC. Put plainly: NCI tumour cell line growth inhibition, 48 h.
Compound `CC1=NC(=Cc2cc(Br)cc(Br)c2)C(=O)N1n1c(-c2ccccc2)nc2ccccc2c1=O` came in with a TGI greater than 100 µM.
The compound `CN1C(=O)c2ccccc2OC12C=Cc1ccc(O)cc1O2` (stereo unspecified) displayed a TGI of 73.7 µM.
Still for that read-out and setting: under `CN(C)CC1CCC/C(=C\c2ccc(Cl)cc2)C1=O` (stereo unspecified) stands 34.2 µM.

A further experiment relates to OVCAR-4 ovarian. Kind of experiment: NCI tumour cell line growth inhibition, 48 h.
`CC1=NC(=Cc2cc(Br)cc(Br)c2)C(=O)N1n1c(-c2ccccc2)nc2ccccc2c1=O` registered a TGI greater than 100 µM.
Regarding `CN1C(=O)c2ccccc2OC12C=Cc1ccc(O)cc1O2` (stereo unspecified), the TGI is 96.9 µM.
As to `CN(C)CC1CCC/C(=C\c2ccc(Cl)cc2)C1=O` (stereo unspecified), the TGI amounted to 8.94 µM.
In turn, `Cc1cc2c(cc1C)C(=O)C1(C2)Cc2c(C)ccc(C)c2C1=O` (stereo unspecified) came in with a TGI greater than 100 µM.

A further experiment deals with HS 578T breast. Put plainly: NCI tumour cell line growth inhibition, 48 h.
Compound `CC1=NC(=Cc2cc(Br)cc(Br)c2)C(=O)N1n1c(-c2ccccc2)nc2ccccc2c1=O` showed a TGI greater than 100 µM.
Same read-out and setting: the value for `CN1C(=O)c2ccccc2OC12C=Cc1ccc(O)cc1O2` (stereo unspecified) was 84.3 µM.
On the same count and under the same terms, under `CN(C)CC1CCC/C(=C\c2ccc(Cl)cc2)C1=O` (stereo unspecified) stands 12.3 µM; under `Cc1cc2c(cc1C)C(=O)C1(C2)Cc2c(C)ccc(C)c2C1=O` (stereo unspecified), greater than 100 µM.

For the next experiment, the system named is HT29 colon. Kind of experiment: NCI tumour cell line growth inhibition, 48 h.
The compound `CC1=NC(=Cc2cc(Br)cc(Br)c2)C(=O)N1n1c(-c2ccccc2)nc2ccccc2c1=O` returned a TGI greater than 100 µM.
On the same count and under the same terms, the value for `CN1C(=O)c2ccccc2OC12C=Cc1ccc(O)cc1O2` (stereo unspecified) was 57.2 µM; that for `CN(C)CC1CCC/C(=C\c2ccc(Cl)cc2)C1=O` (stereo unspecified) was greater than 32.7 µM.

The subject of the next experiment is SR leukemia. Put plainly: NCI tumour cell line growth inhibition, 48 h.
Compound `CC1=NC(=Cc2cc(Br)cc(Br)c2)C(=O)N1n1c(-c2ccccc2)nc2ccccc2c1=O` returned a TGI greater than 100 µM.
On the same count and under the same terms, under `CN1C(=O)c2ccccc2OC12C=Cc1ccc(O)cc1O2` (stereo unspecified) stands 27.4 µM.
On the same count and under the same terms, under `CN(C)CC1CCC/C(=C\c2ccc(Cl)cc2)C1=O` (stereo unspecified) stands greater than 100 µM.
The same measure, in the same setting: under `Cc1cc2c(cc1C)C(=O)C1(C2)Cc2c(C)ccc(C)c2C1=O` (stereo unspecified) stands greater than 100 µM.

In the next experiment the test system is DU-145 prostate. Kind of experiment: NCI tumour cell line growth inhibition, 48 h.
As to `CC1=NC(=Cc2cc(Br)cc(Br)c2)C(=O)N1n1c(-c2ccccc2)nc2ccccc2c1=O`, the TGI was greater than 100 µM.
On to `CN1C(=O)c2ccccc2OC12C=Cc1ccc(O)cc1O2` (stereo unspecified), for which the TGI came to 69.7 µM.
Consider `CN(C)CC1CCC/C(=C\c2ccc(Cl)cc2)C1=O` (stereo unspecified), for which the TGI came to 29.1 µM.
Still for that read-out and setting: under `Cc1cc2c(cc1C)C(=O)C1(C2)Cc2c(C)ccc(C)c2C1=O` (stereo unspecified) stands greater than 100 µM.

In the next experiment the test system is TK-10 renal. Kind of experiment: NCI tumour cell line growth inhibition, 48 h.
The compound `CC1=NC(=Cc2cc(Br)cc(Br)c2)C(=O)N1n1c(-c2ccccc2)nc2ccccc2c1=O` showed a TGI greater than 100 µM.
Take `CN1C(=O)c2ccccc2OC12C=Cc1ccc(O)cc1O2` (stereo unspecified): the TGI is greater than 100 µM.
On the same count and under the same terms, the value for `CN(C)CC1CCC/C(=C\c2ccc(Cl)cc2)C1=O` (stereo unspecified) was 10 µM.
Still for that read-out and setting: the value for `Cc1cc2c(cc1C)C(=O)C1(C2)Cc2c(C)ccc(C)c2C1=O` (stereo unspecified) was greater than 100 µM.

The test system of the next experiment is COLO 205 colon. Kind of experiment: NCI tumour cell line growth inhibition, 48 h.
Take `CC1=NC(=Cc2cc(Br)cc(Br)c2)C(=O)N1n1c(-c2ccccc2)nc2ccccc2c1=O`: the TGI was greater than 100 µM.
Same read-out and setting: under `CN1C(=O)c2ccccc2OC12C=Cc1ccc(O)cc1O2` (stereo unspecified) stands 65.1 µM; under `CN(C)CC1CCC/C(=C\c2ccc(Cl)cc2)C1=O` (stereo unspecified), 4.82 µM; under `Cc1cc2c(cc1C)C(=O)C1(C2)Cc2c(C)ccc(C)c2C1=O` (stereo unspecified), greater than 100 µM.

Another experiment relates to MOLT-4 leukemia. Put plainly: NCI tumour cell line growth inhibition, 48 h.
Compound `CC1=NC(=Cc2cc(Br)cc(Br)c2)C(=O)N1n1c(-c2ccccc2)nc2ccccc2c1=O` gave a TGI greater than 100 µM.
Same read-out and setting: the value for `CN1C(=O)c2ccccc2OC12C=Cc1ccc(O)cc1O2` (stereo unspecified) was 58.7 µM; that for `CN(C)CC1CCC/C(=C\c2ccc(Cl)cc2)C1=O` (stereo unspecified) was greater than 21.7 µM; that for `Cc1cc2c(cc1C)C(=O)C1(C2)Cc2c(C)ccc(C)c2C1=O` (stereo unspecified) was greater than 100 µM.

The next experiment has as its system KM12 colon. Put plainly: NCI tumour cell line growth inhibition, 48 h.
Regarding `CC1=NC(=Cc2cc(Br)cc(Br)c2)C(=O)N1n1c(-c2ccccc2)nc2ccccc2c1=O`, the TGI is greater than 100 µM.
Same read-out and setting: the value for `CN1C(=O)c2ccccc2OC12C=Cc1ccc(O)cc1O2` (stereo unspecified) was 77.5 µM; that for `CN(C)CC1CCC/C(=C\c2ccc(Cl)cc2)C1=O` (stereo unspecified) was 3.46 µM; that for `Cc1cc2c(cc1C)C(=O)C1(C2)Cc2c(C)ccc(C)c2C1=O` (stereo unspecified) was greater than 100 µM.

In another experiment the test system is UACC-62 melanoma. Kind of experiment: NCI tumour cell line growth inhibition, 48 h.
Turning to `CC1=NC(=Cc2cc(Br)cc(Br)c2)C(=O)N1n1c(-c2ccccc2)nc2ccccc2c1=O`, the TGI is greater than 100 µM.
Still for that read-out and setting: under `CN1C(=O)c2ccccc2OC12C=Cc1ccc(O)cc1O2` (stereo unspecified) stands 91.6 µM; under `CN(C)CC1CCC/C(=C\c2ccc(Cl)cc2)C1=O` (stereo unspecified), 4.5 µM.
Same read-out and setting: the value for `Cc1cc2c(cc1C)C(=O)C1(C2)Cc2c(C)ccc(C)c2C1=O` (stereo unspecified) was greater than 100 µM.

Another experiment concerns RPMI-8226 leukemia. Kind of experiment: NCI tumour cell line growth inhibition, 48 h.
For `CC1=NC(=Cc2cc(Br)cc(Br)c2)C(=O)N1n1c(-c2ccccc2)nc2ccccc2c1=O`, the TGI is greater than 100 µM.
Still for that read-out and setting: the value for `CN1C(=O)c2ccccc2OC12C=Cc1ccc(O)cc1O2` (stereo unspecified) was greater than 100 µM.
`CN(C)CC1CCC/C(=C\c2ccc(Cl)cc2)C1=O` (stereo unspecified) returned a TGI greater than 100 µM.
On the same count and under the same terms, under `Cc1cc2c(cc1C)C(=O)C1(C2)Cc2c(C)ccc(C)c2C1=O` (stereo unspecified) stands greater than 100 µM.

In the next experiment the test system is MDA-MB-435. Kind of experiment: NCI tumour cell line growth inhibition, 48 h.
With `CC1=NC(=Cc2cc(Br)cc(Br)c2)C(=O)N1n1c(-c2ccccc2)nc2ccccc2c1=O`, the TGI is greater than 100 µM.
On the same count and under the same terms, the value for `CN1C(=O)c2ccccc2OC12C=Cc1ccc(O)cc1O2` (stereo unspecified) was 85.3 µM; that for `CN(C)CC1CCC/C(=C\c2ccc(Cl)cc2)C1=O` (stereo unspecified) was 9.22 µM.
Same read-out and setting: the value for `Cc1cc2c(cc1C)C(=O)C1(C2)Cc2c(C)ccc(C)c2C1=O` (stereo unspecified) was greater than 100 µM.

Another experiment relates to SF-295 CNS. Kind of experiment: NCI tumour cell line growth inhibition, 48 h.
Compound `CC1=NC(=Cc2cc(Br)cc(Br)c2)C(=O)N1n1c(-c2ccccc2)nc2ccccc2c1=O` gave a TGI greater than 100 µM.
Same read-out and setting: the value for `CN1C(=O)c2ccccc2OC12C=Cc1ccc(O)cc1O2` (stereo unspecified) was greater than 100 µM; that for `CN(C)CC1CCC/C(=C\c2ccc(Cl)cc2)C1=O` (stereo unspecified) was 29.2 µM; that for `Cc1cc2c(cc1C)C(=O)C1(C2)Cc2c(C)ccc(C)c2C1=O` (stereo unspecified) was greater than 100 µM.
